Legend:
primary cortical neurons = assay: Neuronal toxicity of astrocyte conditioned medium (AlamarBlue and LDH assays); assay type: cell-based, mouse; conditions: cortical neurons 24 h with ACM, in words
Protocol: Primary neuron, microglia and astrocyte cell cultures, and α-synuclein PFE's treatment: NOD2 or RIPK2 knockout mice was obtained from Jackson Laboratories (Bar Harbor, ME, USA). Primary cortical neurons were prepared from embryonic day 15.5 pups and cultured in Neurobasal medium (Gibco) supplemented with B-27, 0.5 mM L-glutamine, penicillin and streptomycin (Invitrogen, Grand Island, NY, USA) on tissue-culture plates coated with poly-L-lysine. The neurons were maintained by changing the medium every 3-4 days. Primary microglial and astrocyte cultures were performed as described previously (PMID: 26157004). Whole brains from mouse pups at postnatal day 1 (P1) were obtained. […] The total protein concentration was determined using Pierce BCA protein assay kit (Thermo Scientific), and 15 or 50 μg ml^-1 of total protein was added to mouse primary neurons for the neuronal cell death assay. […] Cell viability was determined by two methods: The AlamarBlue (Invitrogen) and LDH assay (Sigma). Cell death was assessed through AlamarBlue assay, according to the manufacturer's protocol. LDH activity in culture medium, representing relative cell viability and membrane integrity, was measured using the LDH assay kit spectrophotometrically, following the manufacturer's instructions. […]

primary astrocytes = assay: A1 astrocyte conversion in primary astrocytes treated with PFF-activated microglia conditioned medium (MCM); assay type: cell-based, mouse; conditions: astrocytes 24 h with MCM from inhibitor-treated PFF-activated microglia; in words
Protocol: Primary neuron, microglia and astrocyte cell cultures, and α-synuclein PFE's treatment: NOD2 or RIPK2 knockout mice was obtained from Jackson Laboratories (Bar Harbor, ME, USA). Primary cortical neurons were prepared from embryonic day 15.5 pups and cultured in Neurobasal medium (Gibco) supplemented with B-27, 0.5 mM L-glutamine, penicillin and streptomycin (Invitrogen, Grand Island, NY, USA) on tissue-culture plates coated with poly-L-lysine. The neurons were maintained by changing the medium every 3-4 days. Primary microglial and astrocyte cultures were performed as described previously (PMID: 26157004). Whole brains from mouse pups at postnatal day 1 (P1) were obtained. […] The total protein concentration was determined using Pierce BCA protein assay kit (Thermo Scientific), and 15 or 50 μg ml^-1 of total protein was added to mouse primary neurons for the neuronal cell death assay. […] RNA concentration was measured spectrophotometrically using NanoDrop 2000 ([…]). […] The expression levels of targeted genes were normalized to the expression of β-actin and calculated based on the comparative cycle threshold Ct method (2-ΔΔCt).

Row | SMILES | neuronal cell death induced by neurotoxic astrocytes (primary cortical neurons) | A1 astrocyte conversion (primary astrocytes)
1 | COc1cc2ncnc(Nc3ccc(F)c(Cl)c3)c2cc1OCCCN1CCOCC1 [Gefitinib] | significantly prevented neuronal cell death | significantly suppress
2 | CC(C)(C)S(=O)(=O)c1ccc2nccc(Nc3n[nH]c4ccc(F)cc34)c2c1 [GSK583, 6-(tert-butylsulfonyl)-N-(5-fluoro-1H-indazol-3-yl) quinolin-4-amine] | significantly prevented neuronal cell death | significantly suppress

Reference: patent publication US20240398824A1, “Inhibition Of Rip Kinases For Treating Neurodegenerative Disorders” (The Johns Hopkins University, priority 2018, published 2024)
